Assay results taken from PubChem BioAssay AID328 (DTP/NCI, 2004).
Several values for one entry are separate records, joined by “and”; a condition that tells them apart may be missing. Equal values may be shown once. Toxic doses and inconclusive results are not listed.

Tested on: BDF1 mice, P388 leukemia ip, median survival T/C
Assay: NCI In Vivo Anticancer Drug Screen. Data for tumor model P388 Leukemia (intraperitoneal) in B6D2F1 (BDF1) mice
Conditions: endpoint: median survival time, higher = longer survival
In short: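 Compound-treated tumour-bearing mice were compared with vehicle-treated controls. Survival was recorded, and the value is the treated-group measurement divided by the control-group measurement (T/C).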

[1] = dose: 25.0 mg/kg/injection, schedule: Q01DX009 (ip), vehicle: Klucel (hydroxypropylcellulose) (HPC)
[2] = dose: 50.0 mg/kg/injection, schedule: Q04DX003 (ip), vehicle: saline
[3] = dose: 100.0 mg/kg/injection, schedule: Q04DX003 (ip), vehicle: saline
[4] = dose: 100.0 mg/kg/injection, schedule: Q01DX009 (ip), vehicle: saline
[5] = dose: 100.0 mg/kg/injection, schedule: Q01DX009 (ip), vehicle: saline with Tween-80
[6] = dose: 100.0 mg/kg/injection, schedule: Q04DX003 (ip), vehicle: saline with Tween-80
[7] = dose: 200.0 mg/kg/injection, schedule: Q04DX003 (ip), vehicle: saline with Tween-80
[8] = dose: 12.5 mg/kg/injection, schedule: Q01DX009 (ip), vehicle: Klucel (hydroxypropylcellulose) (HPC)

COc1ccc(C(SCC(N)C(=O)O)(c2ccccc2)c2ccc(OC)cc2)cc1 (configuration not stated)
T/C (dose: 3.0 mg/kg/injection, schedule: Q01DX009 (ip), vehicle: Klucel (hydroxypropylcellulose) (HPC)): 123 % of control | T/C (dose: 4.8 mg/kg/injection, schedule: Q04DX003 (ip), vehicle: Klucel (hydroxypropylcellulose) (HPC)): 104 % of control | T/C (dose: 7.0 mg/kg/injection, schedule: Q01DX009 (ip), vehicle: Klucel (hydroxypropylcellulose) (HPC)): 150 % of control | T/C (dose: 7.2 mg/kg/injection, schedule: Q04DX003 (ip), vehicle: Klucel (hydroxypropylcellulose) (HPC)): 104 % of control | T/C (dose: 10.0 mg/kg/injection, schedule: Q01DX009 (ip), vehicle: Klucel (hydroxypropylcellulose) (HPC)): 170 % of control | T/C (dose: 11.0 mg/kg/injection, schedule: Q04DX003 (ip), vehicle: Klucel (hydroxypropylcellulose) (HPC)): 122 % of control | T/C (dose: 16.0 mg/kg/injection, schedule: Q01DX009 (ip), vehicle: Klucel (hydroxypropylcellulose) (HPC)): 154 % of control | T/C [1]: 172 % of control and 181 % of control | T/C (dose: 25.0 mg/kg/injection, schedule: Q04DX003 (ip), vehicle: saline): 154 % of control | T/C (dose: 33.0 mg/kg/injection, schedule: Q04DX003 (ip), vehicle: saline): 209 % of control | T/C (dose: 35.0 mg/kg/injection, schedule: Q01DX009 (ip), vehicle: Klucel (hydroxypropylcellulose) (HPC)): 204 % of control | T/C [2]: 209 % of control and 213 % of control | T/C (dose: 75.0 mg/kg/injection, schedule: Q04DX003 (ip), vehicle: saline): 231 % of control | T/C [3]: 95 % of control

O[C@H](CN1CC1)[C@@H](O)CN1CC1
T/C (dose: 62.5 micrograms/kg/injection, schedule: Q01DX010 (ip), vehicle: saline): 235 % of control | T/C (dose: 125.0 micrograms/kg/injection, schedule: Q01DX010 (ip), vehicle: saline): 230 % of control and 186 % of control | T/C (dose: 250.0 micrograms/kg/injection, schedule: Q01DX010 (ip), vehicle: saline): 227 % of control and 187 % of control | T/C (dose: 500.0 micrograms/kg/injection, schedule: Q01DX010 (ip), vehicle: saline): 116 % of control and 122 % of control

O=C(O)CCCl
T/C [2]: 104 % of control | T/C [4]: 91 % of control | T/C [3]: 104 % of control | T/C (dose: 200.0 mg/kg/injection, schedule: Q01DX009 (ip), vehicle: saline): 95 % of control | T/C (dose: 200.0 mg/kg/injection, schedule: Q04DX003 (ip), vehicle: saline): 100 % of control

C/C(=N\N=C(/C)c1ccc(Cl)cc1)c1ccc(Cl)cc1
T/C (dose: 100.0 mg/kg/injection, schedule: Q01DX009 (ip), vehicle: Klucel (hydroxypropylcellulose) (HPC)): 95 % of control | T/C (dose: 200.0 mg/kg/injection, schedule: Q01DX009 (ip), vehicle: Klucel (hydroxypropylcellulose) (HPC)): 90 % of control | T/C (dose: 400.0 mg/kg/injection, schedule: Q01DX009 (ip), vehicle: Klucel (hydroxypropylcellulose) (HPC)): 113 % of control

CCOc1ccc(N2C(=O)CSC2=S)cc1
T/C (dose: 50.0 mg/kg/injection, schedule: Q01DX009 (ip), vehicle: saline with Tween-80): 104 % of control | T/C (dose: 50.0 mg/kg/injection, schedule: Q04DX003 (ip), vehicle: saline with Tween-80): 110 % of control | T/C [5]: 100 % of control | T/C [6]: 100 % of control | T/C (dose: 200.0 mg/kg/injection, schedule: Q01DX009 (ip), vehicle: saline with Tween-80): 95 % of control | T/C [7]: 100 % of control

CC(=O)N1c2ccccc2C23CCN4CC5=CCOC(O)C(C5CC42)C13 (configuration not stated)
T/C (dose: 30.0 mg/kg/injection, schedule: Q01DX009 (ip), vehicle: saline): 152 % of control

CCCn1cnc2c(=S)nc(N)[nH]c21
T/C (dose: 6.25 mg/kg/injection, schedule: Q01DX009 (ip), vehicle: Klucel (hydroxypropylcellulose) (HPC)): 100 % of control | T/C [8]: 86 % of control | T/C [1]: 86 % of control | T/C (dose: 29.0 mg/kg/injection, schedule: Q04DX003 (ip), vehicle: Klucel (hydroxypropylcellulose) (HPC)): 110 % of control | T/C (dose: 45.0 mg/kg/injection, schedule: Q04DX003 (ip), vehicle: Klucel (hydroxypropylcellulose) (HPC)): 115 % of control | T/C (dose: 50.0 mg/kg/injection, schedule: Q01DX009 (ip), vehicle: Klucel (hydroxypropylcellulose) (HPC)): 105 % of control | T/C (dose: 150.0 mg/kg/injection, schedule: Q04DX003 (ip), vehicle: Klucel (hydroxypropylcellulose) (HPC)): 150 % of control | T/C (dose: 200.0 mg/kg/injection, schedule: Q04DX003 (ip), vehicle: Klucel (hydroxypropylcellulose) (HPC)): 118 % of control

O=C1C(Cl)=C(Cl)C(=O)C2CC=CCC12 (configuration not stated)
T/C (dose: 3.13 mg/kg/injection, schedule: Q01DX001 (ip), vehicle: saline with Tween-80): 95 % of control | T/C (dose: 6.25 mg/kg/injection, schedule: Q01DX001 (ip), vehicle: saline with Tween-80): 114 % of control

CC(=O)OC(C(=O)N(c1ccccc1)c1ccccc1)c1ccccc1 (configuration not stated)
T/C [5]: 92 % of control | T/C (dose: 400.0 mg/kg/injection, schedule: Q01DX009 (ip), vehicle: saline with Tween-80): 96 % of control

O=S(=O)(F)c1cc(C[P+](c2ccccc2)(c2ccccc2)c2ccccc2)ccc1Cl
T/C (dose: 2.0 mg/kg/injection, schedule: Q01DX009 (ip), vehicle: saline with Tween-80): 109 % of control | T/C (dose: 8.0 mg/kg/injection, schedule: Q01DX009 (ip), vehicle: Klucel (hydroxypropylcellulose) (HPC)): 118 % of control | T/C (dose: 8.0 mg/kg/injection, schedule: Q01DX009 (ip), vehicle: saline + alcohol): 123 % of control | T/C (dose: 12.0 mg/kg/injection, schedule: Q01DX009 (ip), vehicle: saline + alcohol): 115 % of control | T/C (dose: 18.0 mg/kg/injection, schedule: Q01DX009 (ip), vehicle: saline + alcohol): 123 % of control | T/C (dose: 25.0 mg/kg/injection, schedule: Q01DX009 (ip), vehicle: saline with Tween-80): 110 % of control

CC1CN(N)CC(C)N1Cc1ccccc1 (configuration not stated)
T/C (dose: 3.12 mg/kg/injection, schedule: Q04DX003 (ip), vehicle: water): 98 % of control | T/C (dose: 6.25 mg/kg/injection, schedule: Q04DX003 (ip), vehicle: water): 104 % of control | T/C (dose: 12.5 mg/kg/injection, schedule: Q04DX003 (ip), vehicle: water): 108 % of control | T/C (dose: 25.0 mg/kg/injection, schedule: Q04DX003 (ip), vehicle: water): 113 % of control

C=C1C(=O)CCC1C(=O)O (configuration not stated)
T/C [4]: 100 % of control and 109 % of control | T/C (dose: 178.0 mg/kg/injection, schedule: Q04DX003 (ip), vehicle: saline): 106 % of control | T/C (dose: 266.0 mg/kg/injection, schedule: Q04DX003 (ip), vehicle: saline): 108 % of control | T/C (dose: 400.0 mg/kg/injection, schedule: Q01DX009 (ip), vehicle: saline): 150 % of control and 154 % of control and 162 % of control | T/C (dose: 400.0 mg/kg/injection, schedule: Q04DX003 (ip), vehicle: saline): 123 % of control | T/C (dose: 600.0 mg/kg/injection, schedule: Q01DX009 (ip), vehicle: saline): 170 % of control and 182 % of control | T/C (dose: 900.0 mg/kg/injection, schedule: Q01DX009 (ip), vehicle: saline): 175 % of control

CCNc1ccc(/C=C2\C=Cc3ccccc32)cc1
T/C (dose: 0.39 mg/kg/injection, schedule: Q01DX009 (ip), vehicle: Klucel (hydroxypropylcellulose) (HPC)): 100 % of control | T/C (dose: 0.78 mg/kg/injection, schedule: Q01DX009 (ip), vehicle: Klucel (hydroxypropylcellulose) (HPC)): 105 % of control | T/C (dose: 1.56 mg/kg/injection, schedule: Q01DX009 (ip), vehicle: Klucel (hydroxypropylcellulose) (HPC)): 110 % of control | T/C (dose: 3.12 mg/kg/injection, schedule: Q01DX009 (ip), vehicle: Klucel (hydroxypropylcellulose) (HPC)): 90 % of control | T/C (dose: 6.25 mg/kg/injection, schedule: Q01DX009 (ip), vehicle: olive oil, sesame oil, peanut oil): 113 % of control | T/C [8]: 95 % of control | T/C (dose: 12.5 mg/kg/injection, schedule: Q01DX009 (ip), vehicle: olive oil, sesame oil, peanut oil): 118 % of control | T/C (dose: 25.0 mg/kg/injection, schedule: Q01DX009 (ip), vehicle: olive oil, sesame oil, peanut oil): 118 % of control | T/C (dose: 50.0 mg/kg/injection, schedule: Q01DX009 (ip), vehicle: olive oil, sesame oil, peanut oil): 100 % of control

O=CN(O)CC(=O)O.[Zn]
T/C (dose: 4.12 mg/kg/injection, schedule: Q01DX009 (ip), vehicle: saline): 118 % of control and 122 % of control | T/C (dose: 6.25 mg/kg/injection, schedule: Q01DX009 (ip), vehicle: saline): 118 % of control and 122 % of control | T/C (dose: 8.7 mg/kg/injection, schedule: Q04DX003 (ip), vehicle: saline): 104 % of control | T/C (dose: 9.37 mg/kg/injection, schedule: Q01DX009 (ip), vehicle: saline): 118 % of control | T/C (dose: 13.0 mg/kg/injection, schedule: Q04DX003 (ip), vehicle: saline): 113 % of control | T/C (dose: 19.5 mg/kg/injection, schedule: Q04DX003 (ip), vehicle: saline): 113 % of control | T/C (dose: 30.0 mg/kg/injection, schedule: Q04DX003 (ip), vehicle: saline): 118 % of control

CCOCc1cccc2ccccc12
T/C [6]: 109 % of control | T/C [7]: 100 % of control | T/C (dose: 400.0 mg/kg/injection, schedule: Q04DX003 (ip), vehicle: saline with Tween-80): 118 % of control

O=C1SCCC1CO (configuration not stated)
T/C [6]: 114 % of control
